These results are taken from publication PMC6435570, “Zafirlukast Is a Dual Modulator of Human Soluble Epoxide Hydrolase and Peroxisome Proliferator-Activated Receptor γ” (Frontiers in Pharmacology, 2019).

The test system of data set [1] is PPARγ, FABP-4 and CD36 protein in 3T3-L1 adipocytes. Nature of the data set: Protein expression in differentiated 3T3-L1 adipocytes (Western Blot). In kind it is cell-based, murine. The conditions noted are these: rosiglitazone 2 μM; for PPARγ isoforms γ1 and γ2 protein expression: 3T3-L1 differentiated with cocktail plus compound; for Protein expression of PPARγ target genes FABP-4 and CD36: after 14 days. The method, then:
3T3-L1 cells were differentiated into adipocytes for 14 days according to the protocol of [Zebisch et al. (2012)]. For this, cells were seeded in 6-well plates ([…]) and differentiation was induced after 48 h by addition of a differentiation cocktail containing 1 μg/mL insulin, 0.25 μM dexamethasone and 0.5 mM isobutylmethylxanthine (IBMX) in DMEM supplemented with 10% FCS and 1% PS. […] After 2 days, medium was replaced by DMEM supplemented with 10% FCS, 1% PS and 1 μg/mL insulin for 2 more days. Afterwards, cells were kept for lipid droplet accumulation in DMEM containing 10% FCS and 1% PS until day 15. Media were replaced every other day.
(§1) Total 3T3-L1 or HEP-G2 cell lysates were prepared in lysis buffer (20 mM Tris-HCl, pH 7.4, 150 mM NaCl, 2 mM EDTA, 1% Triton X-100, 0.5% NP-40) supplemented with protease and phosphatase inhibitors (PhosSTOP^TM + cOmplete^TM Mini, Roche Diagnostics GmbH, Mannheim, Germany). Protein concentrations were quantified using the Pierce^TM BCA Protein Assay Kit (Thermo Scientific, Waltham, MA, United States). Total protein (30 μg/lane) was separated by SDS-polyacrylamide gel electrophoresis and transferred to nitrocellulose membranes (GE Healthcare Life Sciences, Little Chalfont, United Kingdom). Membranes were blocked with Odyssey blocking reagent (LI-COR Biosciences, Bad Homburg, Germany) for 1 h at room temperature. Ensuing, membranes were incubated with antibodies against CD36 (EPR6573, Abcam, Cambridge, United Kingdom), PPARγ (E-8, Santa Cruz Biotechnology, Heidelberg, Germany), FABP-4 (C-15, Santa Cruz Biotechnology, Heidelberg, Germany) or PPARγ Ser273 (Bioss Antibodies Inc., Woburn, MA, United States) overnight at 4°C. Afterwards, membranes were washed and incubated with fluorescence conjugated secondary antibodies (IRDye, LI-COR Biosciences, Bad Homburg, Germany). Protein antibody complexes were visualized on the Odyssey Infrared Imaging System (LI-COR Biosciences, Bad Homburg, Germany). β-actin (I-19, goat, polyclonal, Santa Cruz Biotechnology, Heidelberg, Germany) was used as loading control. The density of the immune reactive bands was analyzed using the Image Studio 5.2 software (LI-COR Biosciences, Bad Homburg, Germany).
As master regulator of adipocyte differentiation in men and mice, PPARγ plays a crucial role in the cell’s commitment to the adipocyte lineage by controlling important functions such as intracellular biosynthesis, transport and accumulation of lipids. Murine 3T3-L1 fibroblasts are a well characterized in vitro tool to study PPARγ induced adipocyte differentiation. These cells can be differentiated from fibroblasts into adipocytes by an activation cocktail (0.5 mM IBMX, 1 μg/mL insulin, 0.25 μM dexamethasone) together with the potential PPARγ agonist. Upon differentiation, different parameters such as lipid accumulation and PPARγ target gene expression can be assessed to investigate the PPARγ activating potential of the compounds of interest. […] Rosiglitazone (2 μM) was used as positive control. This was followed by insulin (1 μg/mL) treatment for another 48 h. After this, cells were kept in growth medium for a week to complete the differentiation process and allow intracellular lipid accumulation. Subsequently, the cells were stained with Oil Red O solution to investigate the extent of cytoplasmic lipid droplet accumulation as a measure for cell differentiation.
In addition to mRNA expression, the protein expression levels of the two PPARγ target genes FABP-4 and CD36 in differentiated 3T3-L1 cells after 14 days were investigated. For this, total protein lysates were separated by gel electrophoresis followed by Western Blotting (Figure 3E,F and Supplementary Figures S2A,B).

On the set-up of data set [2]: method as in Brocks et al., 1996; Knorr et al., 2001; Karonen et al., 2012. The conditions noted are these: ref Brocks et al., 1996; Knorr et al., 2001; Karonen et al., 2012; cited from earlier work.
Data set [3] has as its system PPARγ2 phosphorylation at serine 273. The data set can be described thus: TNFα triggered PPARγ Ser273 phosphorylation in 3T3-L1 adipocytes (Western Blot). Format: cell-based, murine. The settings on record: zafirlukast 1 or 10 μM or rosiglitazone 2 μM for 45 min, then TNFα 50 ng/mL 30 min. The method, then:
as §1, with “Ensuing, membranes were incubated with antibodies against CD36 (EPR6573, Abcam, Cambridge, United Kingdom), PPARγ (E-8, Santa Cruz Biotechnology, Heidelberg, Germany), FABP-4 (C-15, Santa Cruz Biotechnology, Heidelberg, Germany) or PPARγ Ser273 (Bioss Antibodies Inc., Woburn, MA, United States) overnight at 4°C.” left out, “Protein antibody complexes were visualized on the Odyssey Infrared Imaging System (LI-COR Biosciences, Bad Homburg, Germany). β-actin (I-19, goat, polyclonal, Santa Cruz Biotechnology, Heidelberg, Germany) was used as loading control.” left out
We induced this post-translational modification by short-term treatment of the differentiated cells with the cytokine TNFα, generating a pro-inflammatory milieu. […] For this, we used an assay system in which the recruitment of the fluorescence-tagged PPARγ coactivator CBP to the PPARγ-LBD was assessed by time-resolved FRET technique in presence and absence of rosiglitazone.

Data set [4] deals with T1, recombinant human sEH (Homo sapiens, UniProt P34913).
T1 sequence (P34913 1-555): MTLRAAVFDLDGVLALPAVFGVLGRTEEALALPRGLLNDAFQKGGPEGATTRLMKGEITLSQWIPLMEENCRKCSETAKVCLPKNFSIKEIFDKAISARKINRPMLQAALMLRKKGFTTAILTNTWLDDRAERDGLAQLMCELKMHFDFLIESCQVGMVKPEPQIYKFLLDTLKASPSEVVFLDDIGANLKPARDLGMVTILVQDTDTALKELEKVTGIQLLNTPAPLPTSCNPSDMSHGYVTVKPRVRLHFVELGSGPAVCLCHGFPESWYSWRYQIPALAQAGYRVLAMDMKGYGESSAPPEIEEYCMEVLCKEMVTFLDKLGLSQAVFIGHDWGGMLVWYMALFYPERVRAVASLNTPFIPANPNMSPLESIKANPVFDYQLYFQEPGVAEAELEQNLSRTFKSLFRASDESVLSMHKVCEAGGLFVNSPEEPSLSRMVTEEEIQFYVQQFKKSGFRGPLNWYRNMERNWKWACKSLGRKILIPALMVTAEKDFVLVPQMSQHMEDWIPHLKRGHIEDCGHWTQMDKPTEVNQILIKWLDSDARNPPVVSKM
The data set can be described thus: Recombinant sEH activity (PHOME fluorescence assay). In kind it is biochemical. The conditions noted are these: PHOME 50 μM, 30 min preincubation at RT, read-out: sEH rec. IC50.
Protocol: For determination of IC50 values of recombinant human sEH a 96-well fluorescence-based assay system was used as described before ([Blöcher et al., 2016a]). In brief, non-fluorescent PHOME (3 phenylcyano-(6-methoxy-2-naphthalenyl)methyl ester 2-oxiraneacetic acid, Cayman Chemicals, Ann Arbor, MI, United States) was used as substrate, which is hydrolyzed by sEH to the fluorescent 6-methoxynaphthaldehyde ([Rau et al., 2006]). The formation of the fluorescent product was measured (λem = 330 nm, λex = 465 nm) by an Infinite F200 Pro plate reader (Tecan Group Ltd., Männedorf, Switzerland). For that purpose, 2 μg recombinant human sEH in 100 μl bis-Tris buffer (pH 7, 0.1 mg/mL BSA, 0.01% Triton-X 100) was applied per well. This protein solution was then incubated with different concentrations of the test compounds for 30 min at RT. After this, 10 μL of the substrate were added (final concentration 50 μM). The formation of 6-methoxynaphthaldehyde was monitored for 30 min. All concentrations were tested in triplicate wells.

The subject of data set [5] is CysLT1R. The settings on record: Table 2 comparison column; no method, no reference given; cited from earlier work.
Details of data set [6]: method as in Brocks et al., 1996; Knorr et al., 2001; Karonen et al., 2012. The conditions noted are these: single oral dose of 20 mg; ref Brocks et al., 1996; Knorr et al., 2001; Karonen et al., 2012; cited from earlier work.

SMILES strings stand for the structures. “Also recorded” adds a separate entry of the source.

`CC(C)(O)c1ccccc1CC[C@@H](SCC1(CC(=O)O)CC1)c1cccc(/C=C/c2ccc3ccc(Cl)cc3n2)c1` [Montelukast, montelukast]: in data set [1], the “PPARγ isoforms γ1 and γ2 protein expression” value is on record as “not affected”; the “Protein expression of PPARγ target genes FABP-4 and CD36” value is recorded as “no effect at all”.
Regarding `COc1cc(C(=O)NS(=O)(=O)c2ccccc2C)ccc1Cc1cn(C)c2ccc(NC(=O)OC3CCCC3)cc12` [Zafirlukast, zafirlukast], the Plasma protein binding entry in data set [2] was “High”. Besides, the “TNFα induced phosphorylation of PPARγ2 at serine 273” value in data set [3] is “inhibited this phosphorylation; also recorded: completely revert this phosphorylation”. Besides, the IC50 in data set [4] is 1970 ± 80 nM; in data set [5] it was 5 nM. In data set [1], the “PPARγ isoforms γ1 and γ2 protein expression” value is on record as “upregulated the protein levels”. The “Protein expression of PPARγ target genes FABP-4 and CD36” value in data set [1] is given as “induced target gene expression as well but to a weaker extent”. In addition, the Peak serum level result in data set [6] is given as “about 1 μM”.
